These results are taken from patent US20210252104A1, “ANTIBACTERIAL PEPTIDE MONOMERS AND COMBINATIONS FOR CO-THERAPY” (ARREVUS, INC., priority 2018, published 2021).

For test [1], the system named is Burkholderia pseudomallei 1026b. It is filed as in vivo. To be noted: for B. pseudomallei load in survivals (CFU/spleen) / total number of samples analyzed/samples with CFU > 10^8: day 62; for B. pseudomallei load in survivals (CFU/spleen): mean of samples with <10^8 CFU/spleen; for Number of deaths: every 6 h for 21 days, 10 mice, to day 62; for total number of samples analyzed/samples with CFU > 10^8: spleens.

In brackets after ≈: the same amount, converted by molar mass. Like-named read-outs stand apart in the source and are kept apart here. Non-standard residues stand in square brackets, D forms with d. Residues, ends and D or L forms follow the SMILES beside them. *: point of attachment. X2 = CN(C)C(=N[C@@H](CCCNC(=N)N)C(=O)*)N(C)C; Ac6c = NC1(C(=O)O)CCCCC1; Pentanoyl = CCCCC(=O)*; NHNH2 = NN* A value given as a limit tells only on which side of the number the result lay.

What is called MIC is the smallest concentration in the dilution series that meets the test's criterion for growth inhibition. Read a high MIC as a need for much substance.

`CC(C)(O/N=C(\C(=O)N[C@@H]1C(=O)N2C(C(=O)[O-])=C(C[n+]3ccccc3)CS[C@H]12)c1csc(N)n1)C(=O)O` [Ceftazidime]: in test [1] (Ceftazidime 150 mg/kg ip), the “Median survival (days post-challenge)” value turned out to be 56.5 days post-challenge, the “B. pseudomallei load in survivals (CFU/spleen)” value is given as 2.6 × 10^5 CFU/spleen, the Number of deaths worked out at 6 and the “total number of samples analyzed/samples with CFU > 10^8” value was 4/1. For the same compound, in test [1] (Ceftazidime 300 mg/kg ip), the “Median survival (days post-challenge)” value was “(>50% survival)”, the “B. pseudomallei load in survivals (CFU/spleen)” value is given as 2.4 × 10^5 CFU/spleen, the Number of deaths turned out to be 3 and the “total number of samples analyzed/samples with CFU > 10^8” value is 3/1. In addition, in test [1] (ceftazidime monotherapy 150 mg/kg), the “Survival rate at the 62-day endpoint” value is recorded as 40%. Moreover, the “Survival rate at the 62-day endpoint” value in test [1] (ceftazidime monotherapy 300 mg/kg) is listed as 70%.

As for `CC(C)C[C@H](NC(=O)[C@H](Cc1ccc(O)cc1)NC(=O)[C@@H]1CCCN1C(=O)[C@H](CCCNC(=N)N)NC(=O)[C@@H]1CCCN1C(=O)[C@H](CCCCN)NC(=O)[C@H](CC(=O)O)NC(=O)[C@@H]1CCCN1C(=O)[C@H](CCCNC(=N)N)NC(=O)C1(N)CCCCC1)C(=O)N1CCC[C@H]1C(=O)N[C@@H](CCCNC(=N)N)C(=O)N1CCC[C@H]1C(=O)N[C@@H](CCCNC(=N)N)C(=O)N1CCC[C@H]1C(=O)N1CCC[C@H]1C(=O)N[C@@H](CCCNC(=N)N)C(=O)N1CCC[C@H]1C(=O)N[C@H](C(=O)N[C@@H](CCCNC(=N)N)C(=O)NN)C(C)C` [Example 7, Chex-RPDKPRPYLPRPRPPRPVR-NH-NH2] (H-[Ac6c]RPDKPRPYLPRPRPPRPVR-NHNH2; N-terminus assumed), the MIC is 1.7 ± 0.1 µM (≈ 4.23 µg/mL) with K. Pneumoniae ATCC 13883, 28.9 ± 2.7 µM (≈ 72 µg/mL) in the test on P. aeruginosa ATCC 47085, 4.0 ± 1.5 µM (≈ 9.96 µg/mL) in the test with E. Coli ATCC 29222 and 52.5 ± 9.5 µM (≈ 131 µg/mL) with A. Baumannii ATCC 19606.

For the compound `CCCCC(=O)N[C@@H](CCCNC(=N)N)C(=O)N1CCC[C@H]1C(=O)N[C@@H](CC(=O)O)C(=O)N[C@@H](CCCCN)C(=O)N1CCC[C@H]1C(=O)N[C@@H](CCCNC(=N)N)C(=O)N1CCC[C@H]1C(=O)N[C@@H](Cc1ccc(O)cc1)C(=O)N[C@@H](CC(C)C)C(=O)N1CCC[C@H]1C(=O)N[C@@H](CCCNC(=N)N)C(=O)N1CCC[C@H]1C(=O)N[C@@H](CCCNC(=N)N)C(=O)N1CCC[C@H]1C(=O)N1CCC[C@H]1C(=O)N[C@@H](CCCNC(=N)N)C(=O)N1CCC[C@H]1C(=O)N[C@H](C(=O)N[C@@H](CCCNC(=N)N)C(N)=O)C(C)C` [Example 4, Va-RPDKPRPYLPRPRPPRPVR-NH2] (Pentanoyl-RPDKPRPYLPRPRPPRPVR-NH2), the MIC is 2.1 ± 0.0 µM (≈ 5.11 µg/mL) in the test on K. Pneumoniae ATCC 13883, 82.0 ± 5.0 µM (≈ 200 µg/mL) against P. aeruginosa ATCC 47085, 5.6 ± 1.8 µM (≈ 13.6 µg/mL) against E. Coli ATCC 29222 and greater than 100 µM in the test on A. Baumannii ATCC 19606.

Take “Ac-RPDKPRPYLPRPRPPRPVR-NH2 [Example 2, Ac-RPDKPRPYLPRPRPPRPVR-NH2]”: the minimum inhibitory concentration (MIC) with K. Pneumoniae ATCC 13883 is 2.0 ± 0.2 µM; in the test on P. aeruginosa ATCC 47085, greater than 100 µM; in the test on E. Coli ATCC 29222 it was 3.6 ± 0.1 µM; in the test with A. Baumannii ATCC 19606 it was greater than 100 µM.

For the compound `CC(C)C[C@H](NC(=O)[C@H](Cc1ccc(O)cc1)NC(=O)[C@@H]1CCCN1C(=O)[C@H](CCCNC(=N)N)NC(=O)[C@@H]1CCCN1C(=O)[C@H](CCCCN)NC(=O)[C@H](CC(=O)O)NC(=O)[C@@H]1CCCN1C(=O)[C@H](CCCNC(=N)N)N=C(N(C)C)N(C)C)C(=O)N1CCC[C@H]1C(=O)N[C@@H](CCCNC(=N)N)C(=O)N1CCC[C@H]1C(=O)N[C@@H](CCCNC(=N)N)C(=O)N1CCC[C@H]1C(=O)N1CCC[C@H]1C(=O)N[C@@H](CCCNC(=N)N)C(=O)N1CCC[C@H]1C(=O)N[C@H](C(=O)N[C@@H](CCCNC(=N)N)C(N)=O)C(C)C` [Example 5, Gu-RPDKPRPYLPRPRPPRPVR-NH2] (X2-PDKPRPYLPRPRPPRPVR-NH2; N-terminus assumed), the MIC in the test on K. Pneumoniae ATCC 13883 is 1.5 ± 0.4 µM (≈ 3.67 µg/mL); against P. aeruginosa ATCC 47085, 64.7 ± 2.1 µM (≈ 158 µg/mL); with E. Coli ATCC 29222, 5.8 ± 2.2 µM (≈ 14.2 µg/mL); with A. Baumannii ATCC 19606, greater than 100 µM.
